The supplement of paper PMC10307832

Tests used:
Assay in all cases: relative viability (nuclei count vs DMSO), 5 days (fraction); higher = more cells survive
NCI-H650 = tested on: NCI-H650
In short: (§1)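 Lung cancer cell lines in 1536-well plates got either a single drug or a fixed anchor-drug dose together with five library-drug doses (not always all listed) in √10 steps, by pin tool, on the day after seeding. Nuclei were counted after 5 days, and relative viability is the treated-to-vehicle ratio of nuclei counts. Values are medians of duplicate plates.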

NCI-H23 = tested on: NCI-H23
In short: as §1

NCI-H358 = tested on: NCI-H358
In short: as §1

COR-L23 = tested on: COR-L23
In short: as §1

NCI-H2342 = tested on: NCI-H2342
In short: as §1

NCI-H441 = tested on: NCI-H441
In short: as §1

A-427 = tested on: A-427
In short: as §1

NCI-H1975 = tested on: NCI-H1975
In short: as §1

SK-MES-1 = tested on: SK-MES-1
In short: as §1

BEN = tested on: BEN
In short: as §1

NCI-H838 = tested on: NCI-H838
In short: as §1

HCC-15 = tested on: HCC-15
In short: as §1

NCI-H1437 = tested on: NCI-H1437
In short: as §1

HCC-827 = tested on: HCC-827
In short: as §1

NCI-H596 = tested on: NCI-H596
In short: as §1

EKVX = tested on: EKVX
In short: as §1

201T = tested on: 201T
In short: as §1

HARA = tested on: HARA
In short: as §1

SW 900 = tested on: SW 900
In short: as §1

NCI-H1650 = tested on: NCI-H1650
In short: as §1

In the case of `Nc1ccn([C@@H]2O[C@H](CO)[C@@H](O)[C@@H]2O)c(=O)n1` [Cytarabine] + COc1cc2c(Oc3ccc(NC(=O)C4(C(=O)Nc5ccc(F)cc5)CC4)cc3F)ccnc2cc1OCCCN1CCOCC1 [Foretinib] (partner 0.25 µM), the relative viability (NCI-H650; first compound 0.005 µM) is reported as 0.857, the relative viability (NCI-H650; first compound 0.01581 µM) is reported as 0.642 and the relative viability (NCI-H650; first compound 0.05 µM) is reported as 0.504. It also gave a relative viability (NCI-H650; first compound 0.1581 µM) of 0.283, a relative viability (NCI-H650; first compound 0.5 µM) of 0.227 and a relative viability (NCI-H23; first compound 0.005 µM) of 0.784. The relative viability (NCI-H23; first compound 0.01581 µM) was 0.414, the relative viability (NCI-H23; first compound 0.05 µM) was 0.43 and the relative viability (NCI-H23; first compound 0.1581 µM) was 0.285. The relative viability (NCI-H23; first compound 0.5 µM) was 0.256, the relative viability (NCI-H358; first compound 0.005 µM) was 0.612 and the relative viability (NCI-H358; first compound 0.01581 µM) was 0.603. It also gave a relative viability (NCI-H358; first compound 0.05 µM) of 0.3, a relative viability (NCI-H358; first compound 0.1581 µM) of 0.131 and a relative viability (NCI-H358; first compound 0.5 µM) of 0.126. It also gave a relative viability (COR-L23; first compound 0.005 µM) of 0.958, a relative viability (COR-L23; first compound 0.01581 µM) of 0.966 and a relative viability (COR-L23; first compound 0.05 µM) of 0.612. The relative viability (COR-L23; first compound 0.1581 µM) was 0.206, the relative viability (COR-L23; first compound 0.5 µM) was 0.137 and the relative viability (NCI-H2342; first compound 0.005 µM) was 0.983. The relative viability (NCI-H2342; first compound 0.01581 µM) was 0.887, the relative viability (NCI-H2342; first compound 0.05 µM) was 0.798 and the relative viability (NCI-H2342; first compound 0.1581 µM) was 0.784. It also gave a relative viability (NCI-H2342; first compound 0.5 µM) of 0.676, a relative viability (NCI-H441; first compound 0.005 µM) of 0.841 and a relative viability (NCI-H441; first compound 0.01581 µM) of 0.856. The relative viability (NCI-H441; first compound 0.05 µM) was 1.05, the relative viability (NCI-H441; first compound 0.1581 µM) was 0.661 and the relative viability (NCI-H441; first compound 0.5 µM) was 0.4. For the same molecule, the relative viability (A-427; first compound 0.005 µM) was 0.975, the relative viability (A-427; first compound 0.01581 µM) was 0.399 and the relative viability (A-427; first compound 0.05 µM) was 0.296. For the same molecule, the relative viability (A-427; first compound 0.1581 µM) was 0.182, the relative viability (A-427; first compound 0.5 µM) was 0.176 and the relative viability (NCI-H1975; first compound 0.005 µM) was 0.982. It also gave a relative viability (NCI-H1975; first compound 0.01581 µM) of 1.03, a relative viability (NCI-H1975; first compound 0.05 µM) of 0.889 and a relative viability (NCI-H1975; first compound 0.1581 µM) of 0.481. For the same molecule, the relative viability (NCI-H1975; first compound 0.5 µM) was 0.314, the relative viability (SK-MES-1; first compound 0.005 µM) was 0.763 and the relative viability (SK-MES-1; first compound 0.01581 µM) was 0.704. The relative viability (SK-MES-1; first compound 0.05 µM) was 0.457, the relative viability (SK-MES-1; first compound 0.1581 µM) was 0.336 and the relative viability (SK-MES-1; first compound 0.5 µM) was 0.304. The relative viability (BEN; first compound 0.005 µM) was 0.768, the relative viability (BEN; first compound 0.01581 µM) was 0.515 and the relative viability (BEN; first compound 0.05 µM) was 0.301. The relative viability (BEN; first compound 0.1581 µM) was 0.278, the relative viability (BEN; first compound 0.5 µM) was 0.222 and the relative viability (NCI-H838; first compound 0.005 µM) was 1.13. The relative viability (NCI-H838; first compound 0.01581 µM) was 1.08, the relative viability (NCI-H838; first compound 0.05 µM) was 0.939 and the relative viability (NCI-H838; first compound 0.1581 µM) was 0.486. For the same molecule, the relative viability (NCI-H838; first compound 0.5 µM) was 0.301, the relative viability (HCC-15; first compound 0.005 µM) was 0.905 and the relative viability (HCC-15; first compound 0.01581 µM) was 1.05. It also gave a relative viability (HCC-15; first compound 0.05 µM) of 0.996, a relative viability (HCC-15; first compound 0.1581 µM) of 0.77 and a relative viability (HCC-15; first compound 0.5 µM) of 0.706. It also gave a relative viability (NCI-H1437; first compound 0.005 µM) of 0.973, a relative viability (NCI-H1437; first compound 0.01581 µM) of 0.922 and a relative viability (NCI-H1437; first compound 0.05 µM) of 0.626. The relative viability (NCI-H1437; first compound 0.1581 µM) was 0.287, the relative viability (NCI-H1437; first compound 0.5 µM) was 0.251 and the relative viability (HCC-827; first compound 0.005 µM) was 0.721. It also gave a relative viability (HCC-827; first compound 0.01581 µM) of 0.424, a relative viability (HCC-827; first compound 0.05 µM) of 0.368 and a relative viability (HCC-827; first compound 0.1581 µM) of 0.169. The relative viability (HCC-827; first compound 0.5 µM) was 0.177, the relative viability (NCI-H596; first compound 0.005 µM) was 0.923 and the relative viability (NCI-H596; first compound 0.01581 µM) was 0.723. The relative viability (NCI-H596; first compound 0.05 µM) was 0.542, the relative viability (NCI-H596; first compound 0.1581 µM) was 0.44 and the relative viability (NCI-H596; first compound 0.5 µM) was 0.336. The relative viability (EKVX; first compound 0.005 µM) was 0.866, the relative viability (EKVX; first compound 0.01581 µM) was 0.594 and the relative viability (EKVX; first compound 0.05 µM) was 0.622. For the same molecule, the relative viability (EKVX; first compound 0.1581 µM) was 0.413, the relative viability (EKVX; first compound 0.5 µM) was 0.793 and the relative viability (201T; first compound 0.005 µM) was 1.1. The relative viability (201T; first compound 0.01581 µM) was 1.12, the relative viability (201T; first compound 0.05 µM) was 1.02 and the relative viability (201T; first compound 0.1581 µM) was 0.762. For the same molecule, the relative viability (201T; first compound 0.5 µM) was 0.323, the relative viability (HARA; first compound 0.005 µM) was 0.753 and the relative viability (HARA; first compound 0.01581 µM) was 0.496. It also gave a relative viability (HARA; first compound 0.05 µM) of 0.363, a relative viability (HARA; first compound 0.1581 µM) of 0.107 and a relative viability (HARA; first compound 0.5 µM) of 0.123. For the same molecule, the relative viability (SW 900; first compound 0.005 µM) was 0.688, the relative viability (SW 900; first compound 0.01581 µM) was 0.569 and the relative viability (SW 900; first compound 0.05 µM) was 0.329. For the same molecule, the relative viability (SW 900; first compound 0.1581 µM) was 0.21, the relative viability (SW 900; first compound 0.5 µM) was 0.114 and the relative viability (NCI-H1650; first compound 0.005 µM) was 0.783. The relative viability (NCI-H1650; first compound 0.01581 µM) was 0.973, the relative viability (NCI-H1650; first compound 0.05 µM) was 0.73 and the relative viability (NCI-H1650; first compound 0.1581 µM) was 0.347. The relative viability (NCI-H1650; first compound 0.5 µM) was 0.211.
